# From ChEMBL document CHEMBL1177672, “Discovery of orally available spirodiketopiperazine-based CCR5 antagonists” (Bioorg Med Chem, 2010)
# Tests used:
# Liver microsomes [1] = assay: (§1) Metabolic stability in rat liver microsomes assessed as compound remaining at 0.5 mg/ml after 15 mins; type: ADME, Microsome; conditions: microsomes, 0.25 h
# [2] = target: C-C chemokine receptor type 5 (Homo sapiens, UniProt P51681); assay: Antagonist activity at human CCR5 receptor expressed in CHO cells assessed as inhibition of MIP-1-alpha-stmulated calcium mobilization; type: functional, cell-based
# [3] = Half life in rat at 30 mg/kg, po; type: ADME, organism-based; parameters: dose 30 mg/kg, route oral; conditions: in vivo
# [4] = Half life in rat at 3 mg/kg, iv; type: ADME, organism-based; parameters: dose 3 mg/kg, route intravenous; conditions: in vivo
# [5] = Volume of distribution at steadt state in rat at 3 mg/kg, iv; conditions: in vivo
# [6] = Oral bioavailability in rat at 30 mg/kg; type: ADME, organism-based; conditions: in vivo
# [7] = Clearance in rat at 3 mg/kg, iv; type: ADME, organism-based; parameters: dose 3 mg/kg, route intravenous; conditions: in vivo
# [8] = (§2) AUC in rat at 30 mg/kg, po; type: ADME, organism-based, Plasma; parameters: dose 30 mg/kg, route oral; conditions: plasma
# Liver microsomes [9] = assay: Half life in rat liver microsome at 0.2 mg/ml; type: ADME
# [10] = Cmax in rat at 30 mg/kg, po; type: ADME, organism-based; parameters: dose 30 mg/kg, route oral; conditions: in vivo
# Caco-2 [11] = assay: Apparent permeability from basolateral to apical side of human Caco-2 cells; type: ADME, cell-based
# Caco-2 [12] = assay: Apparent permeability from apical to basolateral side of human Caco-2 cells; type: ADME, cell-based
# [13] = as §1; type: ADME, Microsome; conditions: liver microsomes, read-out: Stability
# [14] = Aqueous solubility of the compound; type: physicochemical; conditions: buffer
# [15] = system: Human immunodeficiency virus 1; assay: microbe, parasite or virus in culture; conditions: Human immunodeficiency virus 1, BAL
# Description: Antiviral activity against HIV1 BAL by p24 assay
# Rattus norvegicus [16] = assay: AUC in rat at 3 mg/kg, iv; type: ADME, organism-based, Plasma; parameters: dose 3 mg/kg, route intravenous; conditions: in vivo
# Rattus norvegicus [17] = assay: as §2; type: ADME, organism-based, Plasma; parameters: dose 30 mg/kg, route oral; conditions: in vivo
# C-C chemokine receptor type 5, sequence (P51681 whole entry): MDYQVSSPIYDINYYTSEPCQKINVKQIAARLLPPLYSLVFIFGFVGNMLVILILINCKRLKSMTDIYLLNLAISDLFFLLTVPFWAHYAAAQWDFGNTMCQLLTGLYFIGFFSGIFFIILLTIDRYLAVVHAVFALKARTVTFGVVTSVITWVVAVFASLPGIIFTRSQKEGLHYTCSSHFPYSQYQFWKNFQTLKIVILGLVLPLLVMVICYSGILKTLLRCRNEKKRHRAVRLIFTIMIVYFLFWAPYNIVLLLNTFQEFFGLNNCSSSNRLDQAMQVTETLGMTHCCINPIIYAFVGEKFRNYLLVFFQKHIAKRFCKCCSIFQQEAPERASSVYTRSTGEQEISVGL
SMILES,Stability (Liver microsomes [1]) [%],IC50 [2] [nM],t1/2 (Liver microsomes [9]) [min],other results
CCCCN1C(=O)[C@H](CC2CCCCC2)NC(=O)C12CCN(Cc1ccc(Oc3ccc(F)cc3)cc1)CC2.Cl,53,92,–,–
CC(C)CC1NC(=O)C2(CCN(Cc3ccc(Oc4ccccc4)cc3)CC2)N(CCC(C)O)C1=O.Cl (racemic),–,> 3000,12,half-life [3]: 48.4 min; half-life [4]: 11.1 min; Vd [5]: 0.145 L/kg; bioavailability [6]: 34.1%; clearance [7]: 16 mL/min/kg; AUC [8]: 10500 ng·h/mL; Cmax [10]: 7200 ng/mL
CCCCN1C(=O)[C@H](CC2CCCCC2)NC(=O)C12CCN(Cc1ccc(Oc3ccc(C(=O)O)cc3)cc1)CC2.Cl,–,–,–,Papp (Caco-2 [11]): 16.8 ×10⁻⁶ cm/s; Papp (Caco-2 [12]): 11 ×10⁻⁶ cm/s; remaining at 0.25 h [13]: 22%; solubility [14]: 29 µM
CCCCN1C(=O)C(CC2CCCCC2)NC(=O)C12CCN(Cc1ccc(Oc3ccccc3)nc1)CC2.Cl.Cl (racemic),10,21,–,–
CCCCN1C(=O)[C@H](CC2CCCCC2)NC(=O)C12CCN(Cc1ccc(S(=O)(=O)c3ccccc3)cc1)CC2.Cl,19,86,–,–
CCCCN1C(=O)[C@H](CC2CCCCC2)NC(=O)C12CCN(Cc1ccc(Oc3ccc(C(=O)NC)cc3)cc1)CC2.Cl,4,33,–,half-life [3]: 72.7 min; Papp (Caco-2 [12]): 3.51 ×10⁻⁶ cm/s; solubility [14]: 6 µM
CCCCN1C(=O)C(CC(=O)O)NC(=O)C12CCN(Cc1ccc(Oc3ccccc3)cc1)CC2 (racemic),–,> 3000,–,–
CCCCN1C(=O)[C@H](CC2CCCCC2)NC(=O)C12CCN(Cc1ccc(C(=O)c3ccccc3)cc1)CC2.Cl,23,81,–,–
CCCCN1C(=O)[C@H](CC2CCCCC2)NC(=O)C12CCN(Cc1ccc(Oc3ccc(O)cc3)cc1)CC2.Cl,22,42,–,half-life [3]: 205 min; Papp (Caco-2 [11]): 0.14 ×10⁻⁶ cm/s; Papp (Caco-2 [12]): 0.33 ×10⁻⁶ cm/s; AUC [8]: 195 ng·h/mL; solubility [14]: < 5 µM; Cmax [10]: 100 ng/mL
CCCCN1C(=O)[C@H](CC2CCCCC2)NC(=O)C12CCN(Cc1ccc(Oc3ccc(C)cc3)cc1)CC2.Cl,48,79,–,–
CC(C)CC1NC(=O)C2(CCN(Cc3ccc(Oc4ccccc4)cc3)CC2)N(CC(C)C)C1=O.Cl (racemic),–,330,15,–
C/C=C/CN1C(=O)C(CC(C)C)NC(=O)C12CCN(Cc1ccc(Oc3ccccc3)cc1)CC2.Cl (racemic),–,69,14,–
CCCCN1C(=O)C(CC2CCCC2)NC(=O)C12CCN(Cc1ccc(Oc3ccccc3)cc1)CC2.Cl (racemic),–,52,20,–
CCCCN1C(=O)[C@H](CC2CCCCC2)NC(=O)C12CCN(Cc1ccc(Oc3ccc(NS(C)(=O)=O)cc3)cc1)CC2.Cl,15,40,–,–
CCCCN1C(=O)[C@H](CC(C)(C)C)NC(=O)C12CCN(Cc1ccc(Oc3ccccc3)cc1)CC2.Cl,–,79,12,–
CCCCN1C(=O)[C@H](CC2CCCCC2)NC(=O)C12CCN(CCc1ccc(Oc3ccccc3)cc1)CC2,–,> 3000,–,–
CCCCN1C(=O)[C@H](CC2CCCCC2)NC(=O)C12CCN(Cc1ccc(Oc3ccc(S(N)(=O)=O)cc3)cc1)CC2.Cl,24,28,–,IC50 [15]: 10 nM
CCCCN1C(=O)[C@H](CC2CCCCC2)NC(=O)C12CCN(Cc1ccc(C(=O)Nc3ccccc3)cc1)CC2.Cl,29,57,–,–

SMILES,Stability (Liver microsomes [1]) [%],IC50 [2] [nM],t1/2 (Liver microsomes [9]) [min],other results
CCCCN1C(=O)C(CC2CCCCC2)NC(=O)C12CCN(c1ccc(C(=O)OCC)cc1)CC2 (racemic),–,> 3000,–,–
CC(C)CC1NC(=O)C2(CCN(Cc3ccc(Oc4ccccc4)cc3)CC2)N(Cc2ccccc2)C1=O (racemic),–,300,–,–
CCCCN1C(=O)[C@H](CC2CCCCC2)NC(=O)C12CCN(Cc1ccc(Oc3ccc(OC)cc3)cc1)CC2.Cl,34,130,–,–
CCCCN1C(=O)C(CC2CCCCC2)NC(=O)C12CCN(C(=O)OCc1ccccc1)CC2 (racemic),–,3000,–,–
CCCCN1C(=O)C(CC2CCCCC2)NC(=O)C12CCN(Cc1ccc(OC)cc1)CC2.Cl (racemic),–,–,8.3,–
CCCCN1C(=O)C(CC2CCCCC2)NC(=O)C12CCN(Cc1csc(-c3ccccc3)n1)CC2 (racemic),–,570,–,–
CCCCN1C(=O)C(CCC)NC(=O)C12CCN(Cc1ccc(Oc3ccccc3)cc1)CC2.Cl (racemic),–,50,22,–
CCCCN1C(=O)[C@H](CC(C)C)NC(=O)C12CCN(Cc1ccc(Oc3ccccc3)cc1)CC2.Cl,–,–,7.1,–
CCCCN1C(=O)C(CC(=O)OCc2ccccc2)NC(=O)C12CCN(Cc1ccc(Oc3ccccc3)cc1)CC2 (racemic),–,590,–,–
CCCCN1C(=O)[C@H](CC2CCCCC2)NC(=O)C12CCN(Cc1nc(-c3ccccc3)oc1C)CC2,–,450,–,–
CCCCN1C(=O)C(CC2CCCCC2)NC(=O)C12CCN(Cc1ccc(Oc3ccccc3)cc1)CC2.Cl (racemic),–,–,24,Papp (Caco-2 [11]): 0.27 ×10⁻⁶ cm/s; AUC (Rattus norvegicus [16]): 400 ng; half-life [4]: 19.9 min; Papp (Caco-2 [12]): 0.15 ×10⁻⁶ cm/s; clearance [7]: 113 mL/min/kg; AUC [8]: 74.4 ng·h/mL; solubility [14]: < 5 µM
CCCCN1C(=O)[C@H](CC2CCCCC2)NC(=O)C12CCN(Cc1ccc(Sc3ccccc3)cc1)CC2.Cl,38,170,–,–
CCCCN1C(=O)C(CC2CCCCC2)NC(=O)C12CCN(Cc1c[nH]c(-c3ccccc3)n1)CC2 (racemic),–,160,–,–
CCCCN1C(=O)C(CCCC2CCCCC2)NC(=O)C12CCN(Cc1ccc(Oc3ccccc3)cc1)CC2.Cl (racemic),–,> 3000,23,–
CCCCN1C(=O)[C@H](CC2CCCCC2)NC(=O)C12CCN(Cc1ccc(-c3cccnc3)cc1)CC2.Cl.Cl,29,71,–,–
CCCCN1C(=O)C(CC2CCCCC2)NC(=O)C12CCN(Cc1c(C)nn(-c3ccccc3)c1C)CC2.Cl.Cl (racemic),23,35,–,–
CC#CCN1C(=O)C(CC(C)C)NC(=O)C12CCN(Cc1ccc(Oc3ccccc3)cc1)CC2.Cl (racemic),–,54,15,–
CCCCN1C(=O)C(CC(C)C)NC(=O)C12CCN(Cc1ccc(Oc3ccccc3)cc1)CC2.Cl (racemic),–,–,12,half-life [3]: 75.7 min; Papp (Caco-2 [11]): 2.23 ×10⁻⁶ cm/s; AUC (Rattus norvegicus [16]): 372 ng; half-life [4]: 13 min; Papp (Caco-2 [12]): 1.51 ×10⁻⁶ cm/s; AUC (Rattus norvegicus [17]): 290 ng·h/mL; solubility [14]: 14 µM; Cmax [10]: 100 ng/mL
